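Briefly, cells in 96-well plates were exposed to five compound concentrations for 48 h, and endpoints were estimated by linear interpolation. GI50 marks 50% less growth.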 Active and inactive are the calls of the source. No stated cut-off is given here; in the data, active = GI50 up to about 1.1 µM and inactive = higher.
Legend:
Experiment in all cases: inhibition of tumour cell growth, NCI panel, 48 h
[1] = system: LXFL 529
[2] = system: KM-20L2
[3] = system: DMS-114
[4] = system: DMS-273
[5] = system: XF498
[6] = system: DLD-1
[7] = system: M19-MEL
[8] = system: HOP-18
[9] = system: RXF 631

Compound: CCOC1C(Br)Cn2c(=O)c3cc4ccccc4cc3c(=O)n2C1C (stereo not given)
- GI50 [1]: 35.8 µM (inactive)
- GI50 [2]: 68.9 µM (inactive)
- GI50 [3]: 44.8 µM (inactive)
- GI50 [4]: 40.6 µM (inactive)
- GI50 [5]: 31 µM (inactive)
- GI50 [6]: 54.3 µM (inactive)
- GI50 [7]: 55.6 µM (inactive)

Compound: O=C(NCCCCCCCCCCCCNC(=O)c1cnc2ccccc2n1)c1cnc2ccccc2n1
- GI50 [1]: 33.7 µM (inactive)
- GI50 [8]: 20.7 µM (inactive)
- GI50 [2]: > 100 µM (inactive)
- GI50 [3]: 27.8 µM (inactive)
- GI50 [4]: 64.6 µM (inactive)
- GI50 [6]: > 100 µM (inactive)
- GI50 [7]: > 100 µM (inactive)
- GI50 [9]: 99.5 µM (inactive)

Compound: CN/N=C(/CCN1CCCC1)CC(c1ccccc1)c1c(O)c2ccccc2oc1=O (stereo not given)
- GI50 [1]: > 100 µM (inactive)
- GI50 [8]: > 100 µM (inactive)
- GI50 [2]: > 100 µM (inactive)
- GI50 [3]: > 100 µM (inactive)
- GI50 [4]: > 100 µM (inactive)
- GI50 [5]: > 100 µM (inactive)
- GI50 [6]: > 100 µM (inactive)
- GI50 [7]: > 100 µM (inactive)
- GI50 [9]: > 100 µM (inactive)

Compound: O=C1CCCCC1C1(O)C(=O)Nc2cc(F)ccc21 (stereo not given)
- GI50 [1]: > 100 µM (inactive)
- GI50 [8]: > 100 µM (inactive)
- GI50 [2]: > 100 µM (inactive)
- GI50 [3]: > 100 µM (inactive)
- GI50 [4]: > 100 µM (inactive)
- GI50 [5]: > 100 µM (inactive)
- GI50 [6]: > 100 µM (inactive)
- GI50 [7]: > 100 µM (inactive)

Compound: O=C1CC(S(=O)(=O)O)C=C1Nc1cccc(Cl)c1 (stereo not given)
- GI50 [1]: > 100 µM (inactive)
- GI50 [8]: > 100 µM (inactive)
- GI50 [2]: > 100 µM (inactive)
- GI50 [4]: > 100 µM (inactive)
- GI50 [5]: > 100 µM (inactive)
- GI50 [6]: > 100 µM (inactive)
- GI50 [7]: > 100 µM (inactive)

Compound: O=C1CCSC2=C1SCc1sccc12
- GI50 [1]: > 100 µM (inactive)
- GI50 [2]: > 100 µM (inactive)
- GI50 [3]: > 100 µM (inactive)
- GI50 [5]: > 100 µM (inactive)
- GI50 [6]: > 100 µM (inactive)
- GI50 [7]: > 100 µM (inactive)

Compound: COc1cccc(C=O)c1[O-].COc1cccc(C=O)c1[O-].[Zn+2]
- GI50 [1]: 45.3 µM (inactive)
- GI50 [8]: 40.9 µM (inactive)
- GI50 [2]: > 100 µM (inactive)
- GI50 [3]: 51.6 µM (inactive)
- GI50 [4]: 60.5 µM (inactive)
- GI50 [6]: 47 µM (inactive)
- GI50 [7]: 31.8 µM (inactive)

Compound: CCOC(=O)[C@H]1CSC[C@@H](C(=O)OC)N1
- GI50 [1]: > 100 µM (inactive)
- GI50 [3]: > 100 µM (inactive)
- GI50 [4]: > 100 µM (inactive)
- GI50 [6]: > 100 µM (inactive)
- GI50 [7]: > 100 µM (inactive)

Compound: NC(=O)c1ncn2c(=O)n(CCCl)nnc12 [MITOZOLOMIDE]
- GI50 [1]: > 100 µM (inactive)
- GI50 [8]: 323 µM (inactive)
- GI50 [2]: 141 µM (inactive)
- GI50 [3]: 19.8 µM (inactive)
- GI50 [4]: 57.4 µM (inactive)
- GI50 [5]: 12.1 µM (inactive)
- GI50 [6]: 182 µM (inactive)
- GI50 [7]: 172 µM (inactive)

Compound: CCOC(=O)/C=C/c1ccccn1
- GI50 [1]: > 100 µM (inactive)
- GI50 [8]: > 100 µM (inactive)
- GI50 [3]: > 100 µM (inactive)
- GI50 [5]: > 100 µM (inactive)
- GI50 [6]: > 100 µM (inactive)
- GI50 [7]: > 100 µM (inactive)
- GI50 [9]: > 100 µM (inactive)

Compound: COc1ccc(C(=O)C(c2ccc(OC)cc2)C2(O)C(=O)Nc3ccc([N+](=O)[O-])cc32)cc1 (stereo not given)
- GI50 [1]: > 100 µM (inactive)
- GI50 [2]: > 100 µM (inactive)
- GI50 [3]: 48.8 µM (inactive)
- GI50 [4]: > 100 µM (inactive)
- GI50 [6]: > 100 µM (inactive)
- GI50 [7]: > 100 µM (inactive)

Compound: COC(=O)c1c2c(c(-c3ccccc3)c3c1-c1nc(Cl)ccc1CC3)CCc1ccc(Cl)nc1-2
- GI50 [1]: > 100 µM (inactive)
- GI50 [8]: > 100 µM (inactive)
- GI50 [2]: > 100 µM (inactive)
- GI50 [6]: > 100 µM (inactive)
- GI50 [7]: > 100 µM (inactive)
- GI50 [9]: > 100 µM (inactive)

Compound: O=S1(=O)c2ccccc2NC(c2ccc3ccccc3c2)CC1c1ccccc1F (stereo not given)
- GI50 [8]: 22.1 µM (inactive)
- GI50 [2]: > 100 µM (inactive)
- GI50 [4]: > 100 µM (inactive)
- GI50 [5]: > 100 µM (inactive)
- GI50 [6]: > 100 µM (inactive)
- GI50 [7]: > 100 µM (inactive)
- GI50 [9]: > 100 µM (inactive)

Compound: CCCC(=O)CC(C)C(=O)C(=O)NC12CC3CC(CC(C3)C1)C2 (stereo not given)
- GI50 [8]: > 100 µM (inactive)
- GI50 [2]: > 100 µM (inactive)
- GI50 [4]: > 100 µM (inactive)
- GI50 [5]: > 100 µM (inactive)
- GI50 [6]: > 100 µM (inactive)

Compound: O=c1cc(-c2ccccc2)[nH]c2c(F)ccc(F)c12
- GI50 [1]: 68.5 µM (inactive)
- GI50 [8]: > 100 µM (inactive)
- GI50 [3]: 28.7 µM (inactive)
- GI50 [4]: 24.3 µM (inactive)
- GI50 [6]: > 100 µM (inactive)
- GI50 [7]: 41.4 µM (inactive)

Compound: CN(C)NC(=S)NC12CC3CC(CC(C3)C1)C2
- GI50 [1]: > 100 µM (inactive)
- GI50 [8]: > 100 µM (inactive)
- GI50 [2]: > 100 µM (inactive)
- GI50 [3]: > 100 µM (inactive)
- GI50 [4]: > 100 µM (inactive)
- GI50 [5]: > 100 µM (inactive)
- GI50 [6]: > 100 µM (inactive)
- GI50 [7]: > 100 µM (inactive)

Compound: COc1ccc(NC(=O)CC(=O)N2N=C(N(CCC#N)c3cccc(C)c3)CC2c2ccccc2)cc1 (stereo not given)
- GI50 [1]: > 100 µM (inactive)
- GI50 [8]: > 100 µM (inactive)
- GI50 [2]: > 100 µM (inactive)
- GI50 [4]: > 100 µM (inactive)
- GI50 [6]: > 100 µM (inactive)
- GI50 [7]: > 100 µM (inactive)

Compound: Clc1ccc(C2=NOC(C3CCCCC3)C2)cc1 (stereo not given)
- GI50 [1]: > 100 µM (inactive)
- GI50 [8]: > 100 µM (inactive)
- GI50 [3]: > 100 µM (inactive)
- GI50 [4]: > 100 µM (inactive)
- GI50 [6]: > 100 µM (inactive)
- GI50 [7]: > 100 µM (inactive)

Compound: Cc1cc(N(CCC#N)CCC#N)ccc1/C=C1N=C(/C=C\c2ccccc2)N(c2ccc(Cl)cc2)C\1=O
- GI50 [8]: > 100 µM (inactive)
- GI50 [3]: 2.13 µM (inactive)
- GI50 [4]: 0.288 µM (active)
- GI50 [5]: > 100 µM (inactive)
- GI50 [7]: 1.57 µM (inactive)

Compound: COc1ccccc1C1c2cc3c(cc2OC(O)(CO)C1C(=O)O)OCO3.COc1ccccc1C1c2cc3c(cc2OC2(O)COC(=O)C12)OCO3 (stereo not given)
- GI50 [1]: > 100 µM (inactive)
- GI50 [8]: > 100 µM (inactive)
- GI50 [2]: > 100 µM (inactive)
- GI50 [3]: > 100 µM (inactive)
- GI50 [4]: > 100 µM (inactive)
- GI50 [6]: > 100 µM (inactive)
- GI50 [7]: > 100 µM (inactive)

Compound: N#CC1C[C@@H]2CC3(CCC2CN1C(=O)c1ccccc1)OCCO3 (stereo not given in full)
- GI50 [1]: > 100 µM (inactive)
- GI50 [8]: > 100 µM (inactive)
- GI50 [2]: > 100 µM (inactive)
- GI50 [3]: > 100 µM (inactive)
- GI50 [4]: > 100 µM (inactive)
- GI50 [5]: > 100 µM (inactive)
- GI50 [6]: > 100 µM (inactive)
- GI50 [7]: > 100 µM (inactive)

Compound: NC1=NNC(=O)c2nnc3c(C(=O)O)cnn3c2S1
- GI50 [1]: > 100 µM (inactive)
- GI50 [8]: > 100 µM (inactive)
- GI50 [2]: > 100 µM (inactive)
- GI50 [3]: > 100 µM (inactive)
- GI50 [6]: > 100 µM (inactive)
- GI50 [7]: > 100 µM (inactive)

Compound: O=C1CCCc2c(O)ccc(O)c21
- GI50 [1]: 44 µM (inactive)
- GI50 [8]: > 100 µM (inactive)
- GI50 [2]: > 100 µM (inactive)
- GI50 [3]: 19.9 µM (inactive)
- GI50 [4]: > 100 µM (inactive)
- GI50 [6]: > 100 µM (inactive)
- GI50 [7]: 93.5 µM (inactive)

Compound: CCOC(=O)C(C[Si](C)(C)C)P(=O)(OCC)OCC (stereo not given)
- GI50 [1]: > 100 µM (inactive)
- GI50 [2]: > 100 µM (inactive)
- GI50 [3]: > 100 µM (inactive)
- GI50 [4]: > 100 µM (inactive)
- GI50 [5]: > 100 µM (inactive)
- GI50 [6]: > 100 µM (inactive)
- GI50 [7]: > 100 µM (inactive)
- GI50 [9]: > 100 µM (inactive)

Compound: O=C1NC(O)n2c(=O)[nH]c(=O)n21 (stereo not given)
- GI50 [1]: > 100 µM (inactive)
- GI50 [8]: > 100 µM (inactive)
- GI50 [2]: > 100 µM (inactive)
- GI50 [4]: > 100 µM (inactive)
- GI50 [5]: > 100 µM (inactive)
- GI50 [6]: > 100 µM (inactive)
- GI50 [7]: > 100 µM (inactive)
- GI50 [9]: > 100 µM (inactive)

Compound: COc1cc2cc3c4c(cc(OC)c(OC)c4c2cc1OC)CCN3C(=O)OCCN1CCNCC1
- GI50 [1]: 15.1 µM (inactive)
- GI50 [8]: 17 µM (inactive)
- GI50 [2]: 11.8 µM (inactive)
- GI50 [4]: 13.5 µM (inactive)
- GI50 [5]: 15.3 µM (inactive)
- GI50 [6]: 15.2 µM (inactive)
- GI50 [7]: 6.95 µM (inactive)

Compound: CCOc1cc2c(cnc3c4cc(OC)c(OC)cc4ccc23)cc1OC
- GI50 [1]: > 100 µM (inactive)
- GI50 [2]: > 100 µM (inactive)
- GI50 [3]: > 100 µM (inactive)
- GI50 [5]: > 100 µM (inactive)
- GI50 [6]: > 100 µM (inactive)
- GI50 [7]: > 100 µM (inactive)

Compound: CC(=O)N(N=O)c1ccc(N(N=O)C(C)=O)cc1
- GI50 [1]: > 100 µM (inactive)
- GI50 [2]: > 100 µM (inactive)
- GI50 [3]: > 100 µM (inactive)
- GI50 [4]: > 100 µM (inactive)
- GI50 [6]: > 100 µM (inactive)
- GI50 [7]: > 100 µM (inactive)

Compound: CC(=O)Nc1ccc(/C=C2\N=C(c3ccccc3)OC2=O)cc1
- GI50 [1]: > 100 µM (inactive)
- GI50 [8]: > 100 µM (inactive)
- GI50 [2]: > 100 µM (inactive)
- GI50 [3]: 1 µM (active)
- GI50 [6]: > 100 µM (inactive)

Source: ChEMBL document CHEMBL1201862, “PubChem BioAssay data set” (2004)
